{"source": "patent US8822509B2", "about": "“Pain-relieving compositions and uses therefor” (priority 2006, dated 2014)", "key": {"[1]": {"target": "κ-opioid receptors (KOP receptors) (Mus musculus, UniProt P33534)", "sequence (P33534 whole entry)": "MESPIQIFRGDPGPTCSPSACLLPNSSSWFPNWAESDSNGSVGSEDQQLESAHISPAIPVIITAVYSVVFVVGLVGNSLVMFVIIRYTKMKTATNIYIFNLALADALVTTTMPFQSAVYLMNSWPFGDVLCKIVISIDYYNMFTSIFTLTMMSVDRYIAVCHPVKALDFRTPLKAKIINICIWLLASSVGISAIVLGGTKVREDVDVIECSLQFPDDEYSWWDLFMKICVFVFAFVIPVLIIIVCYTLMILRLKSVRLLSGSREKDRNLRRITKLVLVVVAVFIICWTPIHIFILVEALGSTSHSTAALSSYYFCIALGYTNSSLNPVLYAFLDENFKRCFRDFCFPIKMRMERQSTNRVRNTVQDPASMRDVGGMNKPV", "experiment": "Forskolin-stimulated cAMP responses in KOP-transfected HEK293 cells", "conditions": "KOP-transfected HEK293, entire concentration range tested", "method": "(§1) Non-transfected HEK293 cells were used as a control. Transfected HEK293 cells were maintained in Dulbecco's Modified Eagle's Medium (DMEM) supplemented with 10% fetal bovine serum (FBS) and geneticin (1 mg/mL). Non-transfected HEK293 cells were maintained in DMEM supplemented with 10% FBS.\n(§2) The functional interaction between opioids and opioid-like compounds and specific opioid G-protein-coupled receptors (GPCRs) was assessed by measuring changes in intracellular cAMP levels relative to basal levels. The Alphascreen cAMP functional assay measures agonist and antagonist activity of GPCRs by stimulating cells to either increase or decrease intracellular cAMP levels. The assay was performed using an Alphascreen cAMP kit according to the manufacturer's instructions. […]\n(§3) Detection of cAMP is based on the competition between intracellular cAMP and biotinylated cAMP linked streptavidin-coated donor beads for anti-cAMP conjugated acceptor beads. When the donor and acceptor beads are in close proximity visible light emitted at 520-620 nm is detected using the Envision multilabel plate reader. […]\n(§4) The assay performance was optimized by using cells at low passage number and at 70-90% confluence. […] The cell concentration was determined using a haemocytometer. […] Note that the cell number will influence the cAMP levels measured before (basal) and after adenylyl cyclase activation. […]"}, "[2]": {"experiment": "In vitro NO release (Total NOx, modified Griess reagent assay)", "procedure": "Briefly, HEK-MOP cells were seeded at 1×10^5 cells/mL and grown in 10 cm plates to 90% confluence. Four hours prior to experimentation, cell medium was replaced with phenol red-free DMEM. […] Following removal of each supernatant sample, it was replaced with 500 μL of phenol red-free DMEM. Samples were immediately placed on ice until NOx concentrations were quantified.\nSample aliquots (100 μL) were added to 96-well plates in duplicates. Nitrate was first converted to nitrite to determine total NOx concentrations with the addition of 100 μL aliquots of vanadium (III) chloride in 1M HCl (800 mg/100 mL) per well, followed by 100 μL aliquots of modified Griess reagent which converted nitrite to a deep purple azo derivative for spectrophotometric quantification at 560 nm using an Envision Multilabel Plate Reader (PerkinElmer Life Sciences). […] Total NOx and nitrite concentration was determined through inverse prediction against the nitrite standard curve."}, "[3]": {"tested_on": "tactile (mechanical) allodynia in hindpaws of STZ-diabetic rats", "experiment": "Anti-allodynia by von Frey paw withdrawal thresholds (PWT) in STZ-diabetic rats", "assay_type": "in vivo, Wistar rats", "procedure": "Following this, the jugular cannula was withdrawn, the vein tied off, and the incision sutured. Following surgery, rats received antibiotic prophylaxis in the form of topical dusting powder over the sutured incisions, as well as a subcutaneous injection of benzylpenicillin (60 mg). Rats were placed in individual cages, kept warm and monitored closely during the surgical recovery period. Rats were classified as diabetic if on day 10 post-STZ administration, their daily water intake was ≧100 mL and their corresponding blood glucose levels (BGLs) were ≧15 mM.\nCalibrated von Frey filaments were used to document the time course for the development and maintenance of tactile allodynia (defining symptom of PDN).\nBriefly, baseline PWTs were determined for both hindpaws prior to each antinociceptive testing session in the non-diabetic control group at week 0 as well as in groups of STZ-diabetic rats at 10, 14 and 24 wks.\nThe PWT vs time data were normalized by subtracting the pre-dosing baseline PWT values for each individual rat to obtain ΔPWT values as follows: Normalized (Δ)PWT value=Post-treatment PWT value−PWT value prior to treatment.\nΔPWT versus time curves were then constructed. Trapezoidal integration was used to estimate ΔPWT AUC values for individual rats in the non-diabetic and STZ-diabetic rat treatment groups. ΔPWT AUC versus dose curves were constructed and GraphPad™ Prism was used to estimate the ˜ED50 values."}, "[4]": {"target": "T1, μ-opioid receptors (MOP receptors) (Mus musculus, UniProt P42866)", "T1 construct": "expressed in transfected cells; host or cells: HEK293", "T1 sequence (P42866 whole entry)": "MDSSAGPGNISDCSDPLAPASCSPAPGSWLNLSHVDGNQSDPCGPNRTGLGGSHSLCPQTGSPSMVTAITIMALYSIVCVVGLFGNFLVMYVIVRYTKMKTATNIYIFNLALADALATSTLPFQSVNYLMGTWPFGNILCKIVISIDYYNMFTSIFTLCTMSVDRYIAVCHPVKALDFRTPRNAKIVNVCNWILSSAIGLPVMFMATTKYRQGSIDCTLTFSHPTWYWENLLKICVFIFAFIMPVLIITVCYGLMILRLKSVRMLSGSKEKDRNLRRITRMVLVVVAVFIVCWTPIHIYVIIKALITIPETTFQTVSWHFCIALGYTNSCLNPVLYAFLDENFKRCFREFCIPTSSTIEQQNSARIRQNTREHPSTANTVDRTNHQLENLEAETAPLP", "assay_type": "cell-based", "conditions": "2% βCD 1 h 37° C.; reversed by βCD-cholesterol complexes", "procedure": "Briefly, HEK-MOP cells were pre-incubated with 2% (2-hydroxypropyl)-β-cyclodextrin (βCD) for 1 h at 37° C. to deplete cholesterol from caveloae in the cell membrane. Cells were washed with DMEM and then utilized in the forskolin-stimulated cAMP assay as described above. […] Cells were washed with DMEM and then utilized in the forskolin-stimulated cAMP assay as described above."}, "[5]": {"tested_on": "non-diabetic control rats", "experiment": "Tolerance development (7-day continuous s.c. infusion, 2-day washout) in non-diabetic control rats, von Frey PWT", "assay_type": "in vivo"}, "[6]": {"tested_on": "systolic blood pressure of normotensive non-diabetic Wistar rats", "experiment": "Systolic blood pressure (tail cuff) in normotensive rats", "assay_type": "in vivo", "procedure": "Sedation was induced by the intraperitoneal administration of Zoletil® (tiletamine 15 mg kg^−1 and zolazepam 15 mg kg^−1). Using a tail pulse transducer (MLT1010) and an inflatable tail cuff with a Capto SP844 physiological pressure transducer (MLT844/D), systolic blood pressure was recorded via a PowerLab data acquisition unit (ADInstruments, Sydney, Australia). Tails were warmed with lukewarm water prior to each blood pressure reading to increase peripheral circulation so as to facilitate blood pressure recordings using the tail cuff method.\nThis study was designed to assess the effects of single s.c. bolus doses of the furoxan NO donor, Compound 1, relative to vehicle (DMSO:water, 90:10) on systolic blood pressure in normotensive, non-diabetic, adult male Wistar rats. Single bolus doses of Compound 1 were administered by s.c. injection into the back of the neck of adult male normotensive, non-diabetic Wistar rats in the dose range, 80 fmol/kg to 80 lμmol/kg. Specifically, the doses of Compound 1 tested were 80 fmol/kg (n=3), 800 pmol/kg (n=8), 8 nmol/kg (n=6), 800 nmol/kg (n=4), 8 μmol/kg (n=4), 80 μmol/kg (n=3)."}, "[7]": {"target": "T1, μ-opioid receptors (MOP receptors)", "assay_type": "cell-based"}, "[8]": {"tested_on": "tactile allodynia in 14-18 week STZ-diabetic rats", "experiment": "Naloxone or ODQ pre-treatment before test article in 14-18 week STZ-diabetic rats, von Frey PWT", "assay_type": "in vivo, Wistar rats"}, "STZ-diabetic rats": {"tested_on": "STZ-diabetic rats", "experiment": "Tolerance development (7-day s.c. infusion, 2-day washout) in STZ-diabetic rats, von Frey PWT", "assay_type": "in vivo"}, "[9]": {"target": "δ-opioid receptors (DOP receptors) (Mus musculus, UniProt P32300)", "sequence (P32300 whole entry)": "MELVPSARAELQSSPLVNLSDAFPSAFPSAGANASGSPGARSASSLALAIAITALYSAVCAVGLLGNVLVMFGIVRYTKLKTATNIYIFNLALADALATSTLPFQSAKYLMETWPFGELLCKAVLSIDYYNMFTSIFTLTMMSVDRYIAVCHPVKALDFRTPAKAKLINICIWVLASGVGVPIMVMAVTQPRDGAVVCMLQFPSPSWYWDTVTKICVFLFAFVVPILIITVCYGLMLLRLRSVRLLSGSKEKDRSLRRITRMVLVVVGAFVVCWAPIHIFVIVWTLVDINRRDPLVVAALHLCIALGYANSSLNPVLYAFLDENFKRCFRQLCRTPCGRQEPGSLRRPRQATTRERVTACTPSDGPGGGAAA", "experiment": "Forskolin-stimulated cAMP responses in DOP-transfected HEK293 cells", "conditions": "DOP-transfected HEK293, entire concentration range tested", "method": "as §1, §2, §3, §4"}, "[10]": {"tested_on": "non-transfected HEK293 cells", "experiment": "Forskolin-stimulated cAMP responses in non-transfected HEK293 cells", "conditions": "non-transfected HEK293, entire concentration range tested", "method": "as §1, §2, §3, §4"}, "[11]": {"conditions": "10 wks post-STZ, Compound 1 s.c. (FIG. 3B)"}, "[12]": {"conditions": "14 and 24 wks post-STZ, Compound 1 80 and 800 pmol/kg s.c."}, "[13]": {"conditions": "drug-naïve non-diabetic rats, first s.c. bolus"}, "[14]": {"conditions": "non-diabetic rats, second s.c. bolus after 7-day infusion and 2-day washout"}, "[15]": {"conditions": "non-diabetic rats, second s.c. bolus after washout"}, "[16]": {"conditions": "STZ-diabetic rats, second bolus Compound 1 800 pmol/kg after 2-day washout"}, "[17]": {"conditions": "naïve STZ-diabetic rats, first s.c. bolus"}}, "note": "Where “and” joins values, the source holds several entries; their conditions need not be identical. Identical values can stand only once. Entries after “also recorded” stand apart in the source; their conditions may differ.", "data": [{"smiles": "Cc1c(C=O)no[n+]1[O-]", "note": "[Compound 1, 4-formyl-3-methyl-1,2,5-oxadiazole-2-oxide]", "values": [{"measurement": "inhibition of forskolin-stimulated cAMP formation", "setting": "[1]", "result": "did not appear to inhibit"}, {"measurement": "Release of NO (Total NOx %)", "setting": "[2]; Compound 1, 1 mM + L-Cysteine 5 mM, 6-h (b277 prints 50 mM)", "result": "2.7±0.3% and 2.7 + 0.3%"}, {"measurement": "Release of NO (Total NOx %)", "setting": "[2]; Compound 1, 1 mM, 6-h study period", "result": "1.8% and 1.8±0.3%"}, {"measurement": "1 Hour Total NOx", "setting": "[2]; NOx analysis at 1 hour, assay of Example 9", "result": "2.08 µM and 2.19 µM"}, {"measurement": "6 Hours Total NOx", "setting": "[2]; NOx analysis at 6 hours, assay of Example 9", "result": 2.52, "unit": "µM"}, {"measurement": "relief of mechanical allodynia at time of peak effect", "setting": "[3]; 10 wks post-STZ, Compound 1 8 fmol/kg s.c.", "result": "complete relief of mechanical allodynia"}, {"measurement": "mean duration of action", "setting": "[3]; [11]", "result": "> 3", "unit": "h"}, {"measurement": "peak anti-allodynic response (PWT)", "setting": "[3]; [11]", "result": "10.6 ± 0.5", "unit": "g"}, {"measurement": "time of peak anti-allodynic response post-dosing", "setting": "[3]; [11]", "result": "~75", "unit": "min"}, {"measurement": "alleviation of mechanical allodynia at time of peak response", "setting": "[3]; [12]", "result": "fully alleviated"}, {"measurement": "duration of action", "setting": "[3]; [12]", "result": "≥ 3", "unit": "h"}, {"measurement": "anti-allodynic effect of doses used at week 10", "setting": "[3]; 14 weeks post-STZ, Compound 1 fmol/kg doses", "result": "no longer effective"}, {"measurement": "anti-allodynia in the hindpaws of STZ-diabetic rats", "setting": "[3]; single s.c. bolus at 10, 14, 24 wks post-STZ", "result": "dose-dependent anti-allodynia/antinociception"}, {"measurement": "effect of lipid raft/caveolae depletion on cAMP effects", "setting": "[4]", "result": "inhibited the effects of Compound 1; also recorded: sensitive to removal of lipid rafts/caveolae"}, {"measurement": "mean duration of action", "setting": "[5]; [13]", "result": "~3", "unit": "h"}, {"measurement": "time of peak antinociception post-dosing", "setting": "[5]; [13]", "result": 1, "unit": "h"}, {"measurement": "mean (±SEM) peak PWT", "setting": "[5]; drug-naïve non-diabetic rats, Compound 1 8 fmol/kg, morphine 2.8 mmol/kg (so in the source) s.c. bolus", "result": "15.9 ± 0.3", "unit": "g"}, {"measurement": "tolerance after 7-day continuous s.c. infusion", "setting": "[5]; non-diabetic rats", "result": "completely tolerant"}, {"measurement": "antinociception after second bolus, naïve vs \"tolerant\" rats", "setting": "[5]; non-diabetic rats, after 2-day washout", "result": "did not differ significantly"}, {"measurement": "mean (±SEM) peak PWT", "setting": "[5]; [14]", "result": "15.6 (±0.7) g"}, {"measurement": "mean (±SEM) peak ΔPWT", "setting": "[5]; [14]", "result": "4.2 (±0.6) g"}, {"measurement": "mean duration of action", "setting": "[5]; [15]", "result": "~3", "unit": "h"}, {"measurement": "time of peak antinociception post-dosing", "setting": "[5]; [15]", "result": 1, "unit": "h"}, {"measurement": "effect on systolic blood pressure", "setting": "[6]; 80 μmol/kg s.c., 30 min post-dosing vs pre-dosing baseline", "result": "decreased significantly; also recorded: significantly reduced systolic blood pressure"}, {"measurement": "mean (±SEM) systolic blood pressure at time of peak effect", "setting": "[6]; 80 μmol/kg s.c., 30 min post-dosing, pre-dose 111.3 (±1.5)", "result": "79.8 (±0.5) mm Hg"}, {"measurement": "mean systolic blood pressure", "setting": "[6]; 80 μmol/kg s.c., 1 h post-dosing", "result": "112.6±0.4", "unit": "mm Hg"}, {"measurement": "effect on systolic blood pressure", "setting": "[6]; single s.c. bolus 80 fmol/kg to 8 μmol/kg, up to 1 h", "result": "no significant effects"}, {"measurement": "effect of naloxone pre-incubation on inhibition of forskolin-stimulated cAMP formation", "setting": "[7]", "result": "not by naloxone"}, {"measurement": "inhibition of forskolin-stimulated cAMP formation", "setting": "[7]; MOP-transfected HEK293, mM, pM and aM concentrations", "result": "inhibited forskolin-stimulated cAMP formation"}, {"measurement": "effect of ODQ pre-incubation on modulation of forskolin-stimulated cAMP formation", "setting": "[7]; ODQ 10 μM", "result": "did not significantly attenuate"}, {"measurement": "effect of pertussis toxin pre-incubation on inhibition of forskolin-stimulated cAMP formation", "setting": "[7]; PTX 100 ng/mL 16 h, Compound 1 1 aM, morphine 1 μM", "result": "abolished by pre-incubation with pertussis toxin"}, {"measurement": "effect of ODQ pre-treatment on anti-allodynia", "setting": "[8]; ODQ 53.4 μmol/kg s.c. 60 min before Compound 1 800 pmol/kg s.c.", "result": "significantly attenuated from 45 minutes onwards; also recorded: partially sensitive"}, {"measurement": "effect of naloxone pre-treatment on anti-allodynia (ΔPWT AUC)", "setting": "[8]; naloxone 1.25 μmol/kg s.c. 10 min before Compound 1 800 pmol/kg or morphine 7 μmol/kg s.c.", "result": "did not significantly attenuate; also recorded: naloxone insensitive"}, {"measurement": "tolerance after 7-day s.c. infusion", "setting": "STZ-diabetic rats; STZ-diabetic rats", "result": "completely tolerant"}, {"measurement": "anti-allodynia after second bolus (tolerance status)", "setting": "STZ-diabetic rats; STZ-diabetic rats, after 2-day washout, morphine 10.5 μmol/kg, Compound 1 800 pmol/kg", "result": "significant reversal of tolerance"}, {"measurement": "mean duration of action", "setting": "STZ-diabetic rats; [16]", "result": "2 to 3", "unit": "h"}, {"measurement": "time of peak anti-allodynia post-dosing", "setting": "STZ-diabetic rats; [16]", "result": "~1", "unit": "h"}, {"measurement": "mean duration of action", "setting": "STZ-diabetic rats; [17]", "result": "~4", "unit": "h"}, {"measurement": "time of peak anti-allodynia post-dosing", "setting": "STZ-diabetic rats; [17]", "result": 1, "unit": "h"}, {"measurement": "mean (±SEM) peak PWT", "setting": "STZ-diabetic rats; naïve STZ-diabetic rats, Compound 1 800 pmol/kg, morphine 10.4 μmol/kg s.c. bolus", "result": "11.6 (±0.6) g"}, {"measurement": "inhibition of forskolin-stimulated cAMP formation", "setting": "[9]", "result": "did not appear to inhibit"}, {"measurement": "inhibition of forskolin-stimulated cAMP formation", "setting": "[10]", "result": "did not appear to inhibit"}]}]}
